{"source": "BindingDB's records for doi:10.1021/jm800527x", "about": "(Roche Palo Alto, 2008)", "key": {"[1]": {"target": "T1, Gag-Pol polyprotein [588-1027,K691N,Y769C]/[588-1147,K691N,Y769C] (Human immunodeficiency virus 1, UniProt P04585, K691N/Y769C)", "T1 construct": "588-1027; 588-1147", "assay": "HIV-1 Reverse Transcriptase Assay", "conditions": "pH 8; 30 °C", "from_the_text": "(§1) IC50s were obtained from the inhibition of the RNA-dependent DNA polymerase activity of the HIV-1 reverse transcriptase enzyme using a primer extension assay. EC50s were obtained from inhibition of virus-induced cell-death in MT-4 cells."}, "[2]": {"target": "T2, Gag-Pol polyprotein [588-1027] (Human immunodeficiency virus type 1 group M subtype B (isolate HXB2), UniProt P04585)", "T2 construct": "588-1027", "assay": "HIV-1 Reverse Transcriptase Assay", "conditions": "pH 8; 30 °C", "from_the_text": "as §1"}}}
{"compound": "Cc1cc(C#N)cc(Oc2ccc(Cc3n[nH]c4nnccc34)cc2Br)c1", "note": "[3-(2-bromo-4-{1H-pyrazolo[3,4-c]pyridazin-3-ylmethyl}phenoxy)-5-methylbenzonitrile]", "values": [{"measurement": "EC50", "setting": "[1]", "result": "> 100", "unit": "nM"}]}
{"compound": "N#Cc1cc(Cl)cc(Oc2c(Br)ccc(Cc3n[nH]c4nccnc34)c2F)c1", "note": "[3-(6-bromo-2-fluoro-3-{1H-pyrazolo[3,4-b]pyrazin-3-ylmethyl}phenoxy)-5-chlorobenzonitrile]", "values": [{"measurement": "EC50", "setting": "[1]", "result": "> 100", "unit": "nM"}, {"measurement": "EC50", "setting": "[2]", "result": "> 25", "unit": "nM"}]}
